The test system of series [1] is HepaRG cells. As to the kind of experiment: Microarray experiment, genome wide mRNA array analysis. In kind it is cell-based, human. The following applies: 1 µM, 24 hours, vs DMSO vehicle; for Fold changes to "DMSO", TBP mRNA: control gene. The procedure: HepaRG cells were obtained plated from Biopredic International (# HPR203-MW96, Rennes, France) and cultivated in 6-well plates using the media and protocol supplied by the manufacturer. Cells were cultivated in induction medium (Biopredic International) with 1 µM of PX20350 (E. Hambruch et al., J. Pharmacol. Exp. Ther. 2012, 343, 556) diluted from a 20 mM stock solution in DMSO or DMSO as a vehicle control for 24 hours. Total RNA was isolated following the instructions of the RNeasy 96 RNA isolation kit (Qiagen, Hilde, Germany) and 200 ng total RNA used for a genome wide mRNA array analysis done as a fee for service at the Genomics & Pro-teomics Core Facility of the German Research Facility using the human Sentrix-6 V3 (4213572043) array from Illumina and standard experimental kits and protocols supplied by the manufacturer (Illumina Inc. San Diego U.S.A.).
This upregulation was similar to that (2.7 fold) of the known direct FXR target gene NR0B2 (SHP, Small heterodimer partner). In comparison, TBP mRNA (TATA box binding protein) was not changed in relative abundance (Table 1).

Series [2] has as its system Huh7 human hepatoma cells. Kind of series: Induction of HRG and SHP mRNAs, RT-qPCR normalized to TBP. The class given is cell-based. The following applies: Huh-7, 16 hours. The procedure: (§1) Huh7 (# JCRB0403) cells were obtained from the Health Science Research Resources Bank, Osaka, Japan. Cells were cultivated in MEM containing 8.6% FCS supplemented with 2 mM L-Alanyl-L-Glutamine (all purchased via Sigma-Aldrich, Munich, Germany) in presence of 1 µM of PX20606 or DMSO as a vehicle for 16 hours. Total RNA from cells grown in 96 well tissue plates (Huh7, HepaRG and 3D human liver microtisues) were isolated following the instructions of the RNeasy 96 RNA isolation kit (Qiagen, Hilde, Germany) and cDNA's were synthesized from 1/25th of the isolated total RNA from one 96 well using Superscript II reverse Transcriptase (Life Technologies, Carlsbad, U.S.A.). Quantitative PCR was performed and analyzed using Absolute QPCR Rox Mix (Life Technologies, Carlsbad, U.S.A.) and a 384-format ABI 7900HT Sequence Detection System (Applied Biosystems, Darmstadt, Germany). Gene expression was expressed in arbitrary units and normalized relative to the housekeeping gene TATA box binding protein (TBP). The TBP normalized mRNA levels were plotted for HRG and SHP in Figure 1 (number of replicates n = 6). Table 2: Primer and probe sequences.
Background: Quantitative PCR measures a nucleic acid by following its amplification.

Series [3] has as its target T1, human FXR (Homo sapiens, UniProt Q96RI1).
T1 sequence (Q96RI1 1-486): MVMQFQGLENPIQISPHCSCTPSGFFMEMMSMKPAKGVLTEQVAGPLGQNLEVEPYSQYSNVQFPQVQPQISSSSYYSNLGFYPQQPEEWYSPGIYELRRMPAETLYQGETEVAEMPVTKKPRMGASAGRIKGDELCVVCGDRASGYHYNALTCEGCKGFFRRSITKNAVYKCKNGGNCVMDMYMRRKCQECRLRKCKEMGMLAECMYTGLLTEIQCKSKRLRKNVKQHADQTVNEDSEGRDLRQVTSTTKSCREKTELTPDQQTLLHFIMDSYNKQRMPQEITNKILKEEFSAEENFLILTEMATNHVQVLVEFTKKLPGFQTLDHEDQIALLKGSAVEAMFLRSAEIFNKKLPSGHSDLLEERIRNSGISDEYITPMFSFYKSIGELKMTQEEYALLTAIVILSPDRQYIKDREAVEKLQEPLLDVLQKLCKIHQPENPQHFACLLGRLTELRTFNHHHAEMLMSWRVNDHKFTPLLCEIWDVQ
Kind of series: Luciferase reporter assay with human HRG promoter fragment in Huh7 cells co-transfected with an FXR expression plasmid. The class given is cell-based. The following applies: FXR exogenously expressed, 1 µM, 16 h. The text has this:
A human HRG promoter fragment was cloned as a Xhol-Hindlll fragment (from position -1,973 till +8 with respect to the mRNA starting nucleotide at +1) using the oligonucleotides […] (SEQ ID No. 10) and […] (SEQ ID No. 11) into the Xhol and Hindlll sites of pGL2basic (Promega, Madison, U.S.A.). The IR1 and ER2 sites were mutated using the primers of Table 3. Table 3: Primer sequences
The reporter plasmids pGL2-FXR-RE (FXR-RE), pGL2-PHRG (wt), pGL2-PHRG-IR1mut (IR1mut) and pGL2-PHRG-ER2mut (ER2mut) and pGL2-PHRG-IR1/ER2 (DM) (each 50 ng/well), were co-transfected with pTRex-Dest30-hFXR (20 ng/well) and pCMV-RL (5 ng/well, constitutively expressing the Renilla luciferase under control of a CMV promotor as an internal control) into Huh7 cells using lipofection with Polyethylenimine and cultivated in presence or absence of 1 µM of the FXR agonist PX20606 or DMSO as a vehicle control for 16 h followed by cell lysis and determination of luciferase activities as described in U. Deuschle et al., PLoS One 2012, 7, e43044.

The subject of series [4] is HepG2-FXR5 cells. As to the kind of experiment: Induction of HRG transcription, RT-qPCR normalized to TBP. In kind it is cell-based. The following applies: Homo sapiens, 24 hours. The procedure: as §1, with “The TBP normalized mRNA levels were plotted for HRG and SHP in Figure 1 (number of replicates n = 6). Table 2: Primer and probe sequences.” left out
HepG2-FXR5 cells (described in U. Deuschle et al., PLoS One. 2012, 7, e43044) were cultivated in 96 well plates in RPMI medium supplemented with 8.6% FCS and supplemented with 2 mM L-Alanyl-L-Glutamine (all purchased via Sigma-Aldrich, Munich, Germany). Isolation of total RNA followed by quantitative qPCR was done as described in Example 2.

For series [5], the system named is human primary Upcyte® Hepatocytes. The description is as above. The following applies: Hepatocyte, 24 hours. The class given is cell-based. The procedure: as §1, with “Table 2: Primer and probe sequences.” left out
Upcyte® hepatocytes (Cat# UH0-000-KA00 donor 10-03) derived from primary hepatocytes of a donor were cultivated in 96 well plates in high performance medium (Medicyte, Heidel-berg, Germany). Isolation of total RNA followed by quantitative qPCR was done as described in Example 2.

The test system of series [6] is HepG2-FXR5 cells. As to the kind of experiment: Detection of secreted HRG in cell supernatant by Ni-NTA agarose collection and Western blot. In kind it is cell-based, human. The following applies: 1 µM, 48 hours, vs DMSO, Western blot. The procedure: HepG2-FXR5 cells (described in U. Deuschle et al., PLoS One. 2012, 7, e43044) were cultivated in T75 flasks in RPMI medium supplemented with 0,2% BSA, 2 mM L-Alanyl-L-Glutamine (Sigma-Aldrich, Munich, Germany) and 1x Insulin-Transferrin-Selenium (#51500-056, Life Technolgies, Carlsbad, USA). Each 10 ml supernatant from cells grown in presence of 1 µM PX20606 or DMSO as vehicle for 48 hours were mixed with 100 µL Ni-NTA agarose slurry (#1018240, Qiagen, Hilden, Germany) for 1 h, the slurry was collected by centrifugation and after 3 washes with 10 mL 1xPBS resuspended in 100 µL SDS sample buffer. Western blot was performed (as described in U. Deuschle et al., PLoS One 2012, 7, e43044) and HRG detected using polyclonal mouse-anti human HRG antibodies (ab67807, Abcam, Cambridge, UK).
In general terms: Immunoblotting shows a protein as a band on a membrane.

Where [7] appears, read: read-out: HRG mRNA upregulated compared to DMSO.
The mark [8] stands for this setting: read-out: known direct FXR target gene (SHP mRNA) upregulated compared to DMSO.

Values joined by “and” are separate entries in the source; they are usually repeats but may differ in a detail not shown here. Equal entries are not always repeated. “Also recorded” adds a separate entry of the source. Where two headings read alike, the source gives them in different places.

The results in this text go back to EP3006939A1, “Histidine-rich Glycoprotein as a marker for hepatic Farnesoid X receptor activation” (Gilead Sciences, Inc., priority 2014, dated 2016).

`CN(Cc1ccc(C(=O)O)cc1)c1ccc(OCc2c(-c3c(Cl)cccc3Cl)noc2C2CC2)nc1C(F)(F)F` [PX20350]: in series [1], the “Fold changes to "DMSO", NR0B2 (SHP) mRNA” value turned out to be 2.7 fold and the “Fold changes to "DMSO", TBP mRNA” value is listed as “not changed”. Moreover, in series [1] (1440 min), the “Fold changes to "DMSO", HRG mRNA” value was 2 fold and 2.0 fold; the “Fold changes to "DMSO", TBP mRNA” value is 1.0.

Consider `O=C(O)c1ccc(C2CC2c2ccc(OCc3c(-c4c(Cl)cccc4Cl)noc3C3CC3)cc2Cl)cc1` (centres unmarked) [PX20606, 4-(2-(2-chloro-4-((5-cyclopropyl-3-(2,6-dichlorophenyl)isoxazol-4-yl)methoxy)phenyl)cyclopropyl)benzoic acid], for which the fold induction at 1 µM in series [2] (setting [7]) was about 3.5; in series [2] (setting [8]), about 4; in series [4] (setting [7]), about 20; in series [4] (setting [8]) it was about 6; in series [5] (setting [7]), about 11; in series [5] (setting [8]), about 10. The “activity of HRG promoter with mutated ER-2 site, luciferase reporter” value in series [3] is reported as “loss of FXR/FXR agonist responsitivity”. The “activity of HRG promoter with mutated IR-1 site, luciferase reporter” value in series [3] was “reduce the activity”. In series [3] (vs DMSO), the “activity of HRG promoter (wt, -1973 to +8) luciferase reporter” value was “active”. The “amount of secreted HRG” value in series [6] was “increased; also recorded: up-regulated”.
